The results in this text go back to US4015974A, “Amido phosphorothiolates” (priority 1972, dated 1977).

The structures appear in SMILES notation. Converted amounts (≈) assume the structure as drawn.

What all share (assay type): in vivo
The subject of series [1] is rice stem borer (Chilo suppressalis). As to the kind of experiment: Lethal effect on rice stem borer (Table 6). To be noted: 50 % emulsifiable concentrate, 1000 fold dilute solution, 4 days after application. The source says:
Eggs just before hatch of the rice stem borer were applied in a ratio of 100/pot near the root of rice plants grown up into the tillering stage in an […] Wagner's pot. After eggs were hatched and the larvae entered into stems of rice plants, an 1000 fold dilute solution of each 50 % emulsifiable concentrates of the present compounds was applied by means of a turn table.

The subject of series [2] is broad-leaved weeds, e.g., monochoria, false pimpernel and toothcup. As to the kind of experiment: Water application, herbicidal effect on broad-leaved weeds (Table 2). Conditions: 25 days, score 0-5. Set-up: key: 0: not damaged; 5: completely killed. In outline:
(§1)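 Paddy-soil pots flooded to paddy conditions; rice transplanted at 3-leaf stage, barnyard grass sown, broad-leaved weeds germinating spontaneously. Test compounds applied as wettable powder to soil under flooded water. Herbicidal effect and rice phytotoxicity scored 0–5 at 25 days after application.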

In series [3] the test system is large crabgrass (Digitaria sanguinalis). As to the kind of experiment: Pre-emergence application, herbicidal effect on large crabgrass (Table 1). To be noted: 20 days after application, score 0-5. Set-up: key: 0: not damaged; 5: completely killed. An outline of the steps:
(§2)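 Soil treatment after sowing, pre-emergence; wettable powder formulations diluted with water. Greenhouse, 20 d. Score 0 = no damage, 5 = complete kill.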

Series [4] has as its system barnyard grass (Echinochloa crus-galli). As to the kind of experiment: Water application, herbicidal effect on barnyard grass (Table 2). Set-up: key: 0: not damaged; 5: completely killed. Conditions: 25 days, score 0-5. In outline: as §1
Series [5] concerns redroot pigweed (Amaranthus retroflexus). As to the kind of experiment: Pre-emergence application, herbicidal effect on redroot pigweed (Table 1). Set-up: key: 0: not damaged; 5: completely killed. To be noted: 20 days after application, score 0-5. An outline of the steps: as §2
Series [6] relates to common purslane (Portulaca oleracea). As to the kind of experiment: Pre-emergence application, herbicidal effect on common purslane (Table 1). Conditions: 20 days after application, score 0-5. Set-up: key: 0: not damaged; 5: completely killed. An outline of the steps:
as §2

Series [7] relates to barnyard grass (Echinochloa crus-galli). As to the kind of experiment: Pre-emergence application, herbicidal effect on barnyard grass (Table 1). Set-up: key: 0: not damaged; 5: completely killed. To be noted: 20 days after application, score 0-5. In outline:
as §2

The test system of a further series is radish. As to the kind of experiment: Pre-emergence application, herbicidal effect on radish (Table 1). Set-up: key: 0: not damaged; 5: completely killed. Conditions: 20 days after application, score 0-5. An outline of the steps:
as §2

Series [8] concerns common lambsquarter (Chenopodium album). As to the kind of experiment: Pre-emergence application, herbicidal effect on common lambsquarter (Table 1). Set-up: key: 0: not damaged; 5: completely killed. Conditions: 20 days after application, score 0-5. An outline of the steps:
as §2

A further series concerns nematode. As to the kind of experiment: Effect on nematode (Table 7). Conditions: 500 p.p.m., 24 hours. Set-up: tested at 500 ppm. On the procedure: 0.5 ml. of a nematode-containing aqueous solution separated from food according to Baermann's method was placed in a test tube with ground stopper containing 0.5 ml. of an aqueous dilute solution of each emulsifiable concentrates of the present compounds. The concentration of the active ingredient in the mixture was adjusted to 500 p.p.m. After 24 hours, the death and alive were observed microscopically to calculate the mortality.

The test system of series [9] is carmine mite (Tetranychus telavius). As to the kind of experiment: Lethal effect on carmine mite, leaf dipping (Table 3). Conditions: foliar, 48 h. On the procedure: A large number of carmine mite adult were made parasitic on leaves of potted kidney beans at a 2-leaves stage which had elapsed 10 days after sowing. The leaves of kidney bean on which carmine mites had been made parasitic were dipped for 1 minute in each aqueous solution of the present compounds of wettable powder type. Water was given to the leaves not to kill them, and after 48 hours the death and alive were observed microscopically to calculate the mortality. Values of LC50 were obtained from the mortality.

For another series, the system named is rice. As to the kind of experiment: Water application, phytotoxicity on rice (Table 2). Set-up: key: 0: no effect; 1: very slightly affected; 2: slightly affected; 3: moderately affected; 4: considerably affected; 5: completely killed. Conditions: 25 days, score 0-5. An outline of the steps:
as §1

As usually defined, the LC50 is the concentration lethal to half of the exposed cells or organisms.

Compound `CCOP(=O)(SCC(=O)N1CCCCC1C)SCC(C)C` (centres unmarked) [Compound 6] had a Mortality in series [1] of 75.0%.

In the case of `CCOP(=O)(SCCC(C)C)SCC(=O)N1CCCCC1C` (centres unmarked) [Compound 7], the “Herbicidal effects, broad-leaved weeds” value in series [2] (10 g/a), in series [2] (20 g/a) and in series [2] (40 g/a) was 5 throughout. The “Herbicidal effect, large crabgrass” value in series [3] (10 g./a.), in series [3] (20 g./a.) and in series [3] (40 g./a.) was 5 in each case. Also, the “Herbicidal effects, barnyard grass” value in series [4] (10 g/a), in series [4] (20 g/a) and in series [4] (40 g/a) was 5 throughout. Besides, the “Herbicidal effect, redroot pigweed” value in [5] (10 g./a.) amounted to 4; in series [5] (20 g./a.), 5; in series [5] (40 g./a.), 5. The “Herbicidal effect, common purslane” value in series [6] (10 g./a.), in [6] (20 g./a.) and in [6] (40 g./a.) was 5 each time. Moreover, the “Herbicidal effect, barnyard grass” value in series [7] (10 g./a.), in series [7] (20 g./a.) and in series [7] (40 g./a.) was 5 throughout. Also, the “Herbicidal effect, radish” value in the series with radish (10 g./a.), with radish (20 g./a.) and in the series on radish (40 g./a.) was 0 each time. The “Herbicidal effect, common lambsquarter” value in series [8] (10 g./a.), in series [8] (20 g./a.) and in [8] (40 g./a.) was 5 each time. In the series with nematode, this compound yielded a Mortality of 100%. The LC50 in [9] worked out at 18.5 µg/mL (≈ 50.3 µM). For the same compound, the Phytotoxicity on rice with rice (10 g/a), with rice (20 g/a) and in the series with rice (40 g/a) was 0 in each case.

As for `CCOP(=O)(SCC(=O)N1CCCCC1C)SCc1ccccc1` (centres unmarked) [Compound 11], the “Herbicidal effects, broad-leaved weeds” value in [2] (10 g/a), in series [2] (20 g/a) and in series [2] (40 g/a) was 5 throughout. The results for the “Herbicidal effect, large crabgrass” value in [3] (10 g./a.), in series [3] (20 g./a.) and in series [3] (40 g./a.) were 4, 5 and 5, respectively. In addition, the “Herbicidal effects, barnyard grass” value in series [4] (10 g/a), in series [4] (20 g/a) and in [4] (40 g/a) was 5 each time. Besides, the “Herbicidal effect, redroot pigweed” value in series [5] (10 g./a.) amounted to 4; in [5] (20 g./a.), 5; in series [5] (40 g./a.), 5. The “Herbicidal effect, common purslane” value was found to be 4 in [6] (10 g./a.), 4 in series [6] (20 g./a.) and 5 in [6] (40 g./a.). The “Herbicidal effect, barnyard grass” value in [7] (10 g./a.) stood at 4; in series [7] (20 g./a.), 5; in [7] (40 g./a.), 5. Further, the “Herbicidal effect, radish” value with radish (10 g./a.), with radish (20 g./a.) and in the series with radish (40 g./a.) was 0 in each case. For the same compound, the entries for the “Herbicidal effect, common lambsquarter” value in series [8] (10 g./a.), in series [8] (20 g./a.) and in series [8] (40 g./a.) were 4, 4 and 5, respectively. Also, the Mortality in the series on nematode is 100%. This compound yielded an LC50 in series [9] of 50 µg/mL (≈ 129 µM). Further, the Phytotoxicity on rice with rice (10 g/a), in the series with rice (20 g/a) and with rice (40 g/a) was 0 in each case.

For `CCCSP(=O)(OCC)SCC(=O)N1CCCCC1CC` (centres unmarked) [Compound 14], the “Herbicidal effects, broad-leaved weeds” value in series [2] (10 g/a), in [2] (20 g/a) and in series [2] (40 g/a) was 5 throughout. Further, the “Herbicidal effect, large crabgrass” value in [3] (10 g./a.), in series [3] (20 g./a.) and in series [3] (40 g./a.) was 5 each time. Also, the “Herbicidal effects, barnyard grass” value in series [4] (10 g/a), in series [4] (20 g/a) and in series [4] (40 g/a) was 5 each time. The “Herbicidal effect, redroot pigweed” value in series [5] (10 g./a.) is on record as 4; in series [5] (20 g./a.), 5; in series [5] (40 g./a.) it was 5. Moreover, the “Herbicidal effect, common purslane” value in series [6] (10 g./a.), in series [6] (20 g./a.) and in [6] (40 g./a.) was 5 throughout. In addition, the “Herbicidal effect, barnyard grass” value in series [7] (10 g./a.), in series [7] (20 g./a.) and in series [7] (40 g./a.) was 5 throughout. Further, the “Herbicidal effect, radish” value in the series with radish (10 g./a.), with radish (20 g./a.) and in the series with radish (40 g./a.) was 0 in each case. Also, the “Herbicidal effect, common lambsquarter” value in series [8] (10 g./a.) amounted to 4; in series [8] (20 g./a.), 5; in [8] (40 g./a.), 5. Besides, the Mortality in the series on nematode came to 100%. The compound further came in with an LC50 in series [9] of 23.1 µg/mL (≈ 65.3 µM). Moreover, the Phytotoxicity on rice in the series with rice (10 g/a), in the series on rice (20 g/a) and in the series on rice (40 g/a) was 0 throughout.

As for `C=CCSP(=O)(OCCC)SCC(=O)N1CCC(C)CC1` (centres unmarked) [Compound 18], the “Herbicidal effects, broad-leaved weeds” value in series [2] (10 g/a), in series [2] (20 g/a) and in series [2] (40 g/a) was 5 each time. Further, the “Herbicidal effect, large crabgrass” value in series [3] (10 g./a.), in series [3] (20 g./a.) and in series [3] (40 g./a.) was 5 each time. Further, the “Herbicidal effects, barnyard grass” value in [4] (10 g/a), in series [4] (20 g/a) and in series [4] (40 g/a) was 5 throughout. Besides, the figures for the “Herbicidal effect, redroot pigweed” value in series [5] (10 g./a.), in series [5] (20 g./a.) and in [5] (40 g./a.) were 4, 4 and 5, respectively. In addition, the figures for the “Herbicidal effect, common purslane” value in series [6] (10 g./a.), in series [6] (20 g./a.) and in series [6] (40 g./a.) were 4, 4 and 5, respectively. For the same compound, in [1], the Mortality is recorded as 76.4%. Further, the figures for the “Herbicidal effect, barnyard grass” value in series [7] (10 g./a.), in [7] (20 g./a.) and in [7] (40 g./a.) were 4, 5 and 5, respectively. Further, the “Herbicidal effect, radish” value in the series with radish (10 g./a.), in the series with radish (20 g./a.) and with radish (40 g./a.) was 0 throughout. The “Herbicidal effect, common lambsquarter” value in series [8] (10 g./a.) is on record as 4; in series [8] (20 g./a.) it was 5; in series [8] (40 g./a.), 5. The Phytotoxicity on rice in the series with rice (10 g/a), with rice (20 g/a) and with rice (40 g/a) was 0 in each case.

In series [1], `CCCCSP(=O)(OC)SCC(=O)N1CCCCC1C` (centres unmarked) [Compound 31] yielded a Mortality of 69.5%.

`C=C(C)CSP(=O)(OCC)SCC(=O)N1CCCCC1C` (centres unmarked) [Compound 35] had a Mortality in series [1] of 95.0%.

As to `CCOC(=O)CC(SP(=S)(OC)OC)C(=O)OCC` (centres unmarked) [Malathion, reference compound], the Mortality in series [1] amounted to 41.3%.
